# Laboratory results reported in PubChem BioAssay (NCI).
#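 Step 1: Grow cells in 96-well plates. Step 2: Expose to compound for 48 hours at 5 concentrations. Step 3: Interpolate endpoints linearly; if unreached, use highest concentration. The concentration for 50% growth inhibition is given as GI50. TGI: total growth inhibition.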
# Assays:
# Test in all cases: NCI-60 cell line screen, 48 h
# [1] = test system: RXF 393 renal
# [2] = test system: OVCAR-4 ovarian
# [3] = test system: SK-MEL-28 melanoma
# [4] = test system: SW-620 colon
# [5] = test system: A549 NSCLC
# [6] = test system: A498 renal
# [7] = test system: EKVX NSCLC
# [8] = test system: HCT-116 colon
# [9] = test system: OVCAR-8 ovarian
# [10] = test system: HCC-2998 colon
SMILES,GI50 [1] [nM],TGI [1] [nM],GI50 [2] [nM],TGI [2] [µM],GI50 [3] [µM],TGI [3] [µM],GI50 [4] [nM],TGI [4] [µM],GI50 [5] [µM],TGI [5] [µM],GI50 [6] [µM],TGI [6] [µM],GI50 [7] [µM],TGI [7] [µM],GI50 [8] [nM],TGI [8] [µM],GI50 [9] [nM],TGI [9] [µM],GI50 [10] [µM],TGI [10] [µM]
O=C(/C(Br)=C/c1ccccc1)c1ccccc1,1430,2850,3790,16.9,5.31,23.1,1630,3.9,14.2,28.5,15.5,30,10.6,23.3,1640,3.12,2750,10.2,6.8,19
O=C1O[C@@H](c2ccc3c(c2)OCO3)C2C(=O)O[C@@H](c3ccc4c(c3)OCO4)C12 (stereo not given in full),–,> 100000,–,> 100,–,> 100,–,> 100,–,> 100,–,> 100,–,> 100,–,> 100,–,> 100,–,> 100
CCC[CH2][Sn]([CH2]CCC)([O]C(=O)c1cccnc1SC)[O]C(=O)c1cccnc1SC,210,1120,1620,3.06,0.722,2.02,248,1.25,6.7,20.6,0.676,1.95,1.04,2.22,1120,2.32,1300,2.78,1.3,2.57
